Source: patent US10208000B2, “Eis inhibitors” (priority 2015, dated 2019)

Tests used:
H37Rv Mtb = assay: Mycobacterial MIC determination by alamar blue assay, KAN with sulfonyl isothiazoles; assay type: cell-based, Mycobacterium tuberculosis; conditions: KAN MIC in presence of compound at concentration tested (100x IC50 or 20 μM); KAN line = absence of compound
K204 Mtb = assay type: cell-based, Mycobacterium tuberculosis; conditions: for K204 MICKAN: KAN MIC in presence of compound at concentration tested (100x IC50 or 20 μM), KAN line = absence of compound
[1] = molecular target: Eis_Mtb acetyltransferase (Mycobacterium tuberculosis (strain ATCC 25618 / H37Rv), UniProt P9WFK7); assay type: biochemical; conditions: library compounds 20 μM
Mtb K204 = assay type: cell-based, Mycobacterium tuberculosis
purified Eis [2] = molecular target: T1, purified Eis (Mycobacterium tuberculosis (strain ATCC 25618 / H37Rv), UniProt P9WFK7); assay type: biochemical
AAC(6′)-Ie/APH(2″)-Ia [3] = molecular target: T2, AAC(6′)-Ie/APH(2″)-Ia (Staphylococcus aureus, UniProt P0A0C1); assay: Inhibitor selectivity, sulfonamides; assay type: biochemical; conditions: concentrations as high as 200 μM
Method: (§1) To examine the selectivity of our two best inhibitors (39 and 46) towards Eis, next these two compounds were tested against three other AAC enzymes: AAC(2′)-Ic from Mtb (17, 18), AAC(3)-IV from E. coli (19, 20), and AAC(6′)-Ie/APH(2″)-Ia from Staphylococcus aureus (21, 22).
(§2) The conditions utilized for determination of IC50 values were also used here under the optimum conditions for each enzyme. […] AAC(6′)-Ie/APH(2″)-Ia experiments were incubated at 37° C. All other methods and concentrations are the same as for the experiments with Eis_Mtb.

AAC(2′)-Ic [4] = molecular target: T3, AAC(2′)-Ic (Mycobacterium tuberculosis (strain ATCC 25618 / H37Rv), UniProt P9WQG9); assay: biochemical; parameters: species or system Mtb
AAC(3)-IV [5] = assay: Inhibitor selectivity, sulfonamides; assay type: biochemical, E. coli; conditions: concentrations as high as 200 μM
Method: as §1, §2

Mtb H37Rv = assay: Mycobacterial MIC determination by alamar blue, KAN with sulfonamides; assay type: cell-based, Mycobacterium tuberculosis; conditions: anti-TB activity of KAN against Mtb H37Rv with compound; KAN line = KAN alone
purified Eis [6] = molecular target: T1, purified Eis; conditions: read-out: IC50 (μM) in the Eis acetyltransferase assay
AAC(6′)-Ie/APH(2″)-Ia [7] = molecular target: T2, AAC(6′)-Ie/APH(2″)-Ia; assay: Inhibitor selectivity, sulfonyl isothiazoles; assay type: biochemical; conditions: optimal reaction conditions for the enzyme
AAC(2′)-Ic [8] = molecular target: T3, AAC(2′)-Ic
Method: The conditions described above for determination of IC50 values were used under the optimum conditions for each enzyme. […] AAC(6′)/APH(2″) experiments were incubated at 37° C. while AAC(3)-IV and AAC(2′)-Ic experiments were incubated at 25° C. All other methods and concentrations remained identical to those for the experiments with Eis.

AAC(3)-IV [9] = assay: Inhibitor selectivity, sulfonyl isothiazoles; assay type: biochemical, E. coli; conditions: optimal reaction conditions for the enzyme

| SMILES | H37Rv MICKAN (H37Rv Mtb) | K204 MICKAN (K204 Mtb) | other results |
| --- | --- | --- | --- |
| CCN(CC)CCCNC1=NS(=O)(=O)C(c2ccc(C)c(C)c2)=C1C [Compound 3i] | 0.625 µg/mL | 1.25 µg/mL | reduction in KAN MIC against Mtb K204 (K204 Mtb): 8 fold |
| CC1=C(c2ccc(F)cc2)S(=O)(=O)N=C1NCCCN1CCCCC1 [Compound 6b] | 0.625 µg/mL | 2.5 µg/mL | – |
| CC1=C(c2ccc(F)cc2)S(=O)(=O)N=C1NCCCN1CCCCC1C (stereo not shown) [Compound 7b] | 0.625 µg/mL | 2.5 µg/mL | – |
| CC1=C(c2ccccc2)S(=O)(=O)N=C1NCCCN1CC(C)CC(C)C1 (stereo not shown) [Compound 8a] | 0.625 to 1.25 µg/mL | 5 µg/mL | – |
| CC1=C(c2ccc(C)cc2)S(=O)(=O)N=C1NCCCN1CC(C)CC(C)C1 (stereo not shown) [Compound 8e] | 0.625 µg/mL | 2.5 to 5 µg/mL | – |
| CC1=C(c2ccc(Cl)cc2)S(=O)(=O)N=C1NCCCN1CCc2ccccc2C1 [Compound 11c] | 0.625 µg/mL | 1.25 µg/mL | reduction in KAN MIC against Mtb K204 (K204 Mtb): 8 fold |
| CC1=C(c2ccc(C)cc2)S(=O)(=O)N=C1NCCCN1CCCCCC1 [Compound 12e] | 0.625 µg/mL | 2.5 µg/mL | – |
| CC1=C(c2ccccc2)S(=O)(=O)N=C1NCCCN1CCOCC1 [Compound 13a] | 0.625 µg/mL | 2.5 µg/mL | – |
| CC1=C(c2ccc(C)cc2)S(=O)(=O)N=C1NCCCN1CCOCC1 [Compound 13e] | 0.625 µg/mL | 2.5 µg/mL | – |
| CC1=C(c2cccc(Cl)c2)S(=O)(=O)N=C1NCCCN1CCOCC1 [Compound 13g] | 0.625 µg/mL | 2.5 to 5 µg/mL | – |
| CC1=C(c2ccc(C)c(C)c2)S(=O)(=O)N=C1NCCCN1CCOCC1 [Compound 13i] | 0.625 µg/mL | 5 µg/mL | – |
| CC1=C(c2ccc(Cl)cc2)S(=O)(=O)N=C1NCCCN1CCN(C)CC1 [Compound 14c] | 0.625 µg/mL | 5 µg/mL | – |
| CCCN1CCN(CCCNC2=NS(=O)(=O)C(c3ccc(C)cc3)=C2C)CC1 [Compound 15e] | 0.625 to 1.25 µg/mL | 5 µg/mL | – |
| CCCN1CCN(CCCNC2=NS(=O)(=O)C(c3ccc(C(C)C)cc3)=C2C)CC1 [Compound 15f] | 0.625 to 1.25 µg/mL | 10 µg/mL | – |
| CC1=C(c2ccc(C)c(C)c2)S(=O)(=O)N=C1NCCCN1CCN(C2CCCCC2)CC1 [Compound 17i] | 0.625 to 1.25 µg/mL | 5 µg/mL | – |
| CN(c1ccc(Br)cc1)S(=O)(=O)c1ccc2[nH]c(=O)c(=O)[nH]c2c1 [Compound 29] | – | – | Eis inhibition in the HTS [1]: identified as hits; reduction of KAN MIC value compared to KAN alone (Mtb K204; K204 Mtb): four-fold |
| CN(c1ccccc1)S(=O)(=O)c1ccc2[nH]c(=O)c(=O)[nH]c2c1 [Compound 33] | – | – | decrease in Eis inhibitory activity compared to lead 29 (purified Eis [2]): 70 fold |
| CC1=C(c2ccccc2)S(=O)(=O)N=C1NCCN1CCCCC1 [Compound 33a] | 0.625 µg/mL | 5 µg/mL | – |
| CC(C)c1ccc(N(C)S(=O)(=O)c2ccc3[nH]c(=O)c(=O)[nH]c3c2)cc1 [Compound 35] | – | – | K204 MICKAN (Mtb K204; anti-TB activity of KAN against Mtb K204 with compound, KAN line = KAN alone): 2.5 µg/mL |
| CC1=C(c2ccc(C)cc2)S(=O)(=O)N=C1NCCN1CCOCC1 [Compound 35e] | 0.625 µg/mL | 5 µg/mL | – |
| CC1=C(c2cccc(Cl)c2)S(=O)(=O)N=C1NCCN1CCOCC1 [Compound 35g] | 0.625 µg/mL | 2.5 µg/mL | – |

| SMILES | H37Rv MICKAN (H37Rv Mtb) | K204 MICKAN (K204 Mtb) | other results |
| --- | --- | --- | --- |
| CC1=C(c2cccc(Br)c2)S(=O)(=O)N=C1NCCN1CCOCC1 [Compound 35h] | 0.625 µg/mL | 2.5 µg/mL | – |
| CC1=C(c2ccc(C)c(C)c2)S(=O)(=O)N=C1NCCN1CCOCC1 [Compound 35i] | 0.625 µg/mL | 2.5 µg/mL | – |
| COc1ccc(C2=C(C)C(NCCN3CCN(C)CC3)=NS2(=O)=O)cc1 [Compound 36d] | 0.625 µg/mL | 2.5 to 5 µg/mL | – |
| CCN1CCN(CCNC2=NS(=O)(=O)C(c3ccc(F)cc3)=C2C)CC1 [Compound 37b] | 0.625 µg/mL | 2.5 to 5 µg/mL | – |
| CCN1CCN(CCNC2=NS(=O)(=O)C(c3ccc(OC)cc3)=C2C)CC1 [Compound 37d] | 0.625 to 1.25 µg/mL | 5 to 10 µg/mL | – |
| COc1cccc(N(C)S(=O)(=O)c2ccc3[nH]c(=O)c(=O)[nH]c3c2)c1 [Compound 39] | – | – | inhibition of KAN acetylation by AAC(6′)-Ie/APH(2″)-Ia (AAC(6′)-Ie/APH(2″)-Ia [3]): did not inhibit; inhibition at 200 µM (AAC(2′)-Ic [4]; read-out: inhibition of AAC(2′)-Ic activity): 15%; inhibition of KAN acetylation by AAC(3)-IV (AAC(3)-IV [5]): did not inhibit |
| CN(c1ccc2ccccc2c1)S(=O)(=O)c1ccc2[nH]c(=O)c(=O)[nH]c2c1 [Compound 46] | – | – | inhibition of KAN acetylation by AAC(6′)-Ie/APH(2″)-Ia (AAC(6′)-Ie/APH(2″)-Ia [3]): did not inhibit; inhibition of KAN acetylation by AAC(2′)-Ic (AAC(2′)-Ic [4]): did not inhibit; H37Rv MICKAN (Mtb H37Rv): ≤1.25 µg/mL; inhibition of KAN acetylation by AAC(3)-IV (AAC(3)-IV [5]): did not inhibit |
| CC1=C(c2ccccc2)S(=O)(=O)N=C1N1CCC(N2CCCCC2)CC1 [Compound 46a] | 0.625 to 1.25 µg/mL | 10 µg/mL | – |
| CC1=C(c2ccc(F)cc2)S(=O)(=O)N=C1N1CCC(N2CCCCC2)CC1 [Compound 46b] | 0.625 to 1.25 µg/mL | 5 µg/mL | IC50 (purified Eis [6]): 0.092 ± 0.021 µM; inhibition of AAC(6′)-Ie/APH(2″)-Ia (AAC(6′)-Ie/APH(2″)-Ia [7]): no inhibition; inhibition of AAC(2′)-Ic (AAC(2′)-Ic [8]): no inhibition; inhibition of AAC(3)-IV (AAC(3)-IV [9]): no inhibition |
| CC1=C(c2ccc(Cl)cc2)S(=O)(=O)N=C1N1CCC(N2CCCCC2)CC1 [Compound 46c] | 0.625 µg/mL | 2.5 µg/mL | inhibition of AAC(6′)-Ie/APH(2″)-Ia (AAC(6′)-Ie/APH(2″)-Ia [7]): no inhibition; inhibition of AAC(2′)-Ic (AAC(2′)-Ic [8]): no inhibition; inhibition of AAC(3)-IV (AAC(3)-IV [9]): no inhibition |
| CC1=C(c2cccc(Br)c2)S(=O)(=O)N=C1N1CCC(N2CCCCC2)CC1 [Compound 46h] | 0.625 µg/mL | 5 µg/mL | – |
| CC1=C(c2ccc(C)c(C)c2)S(=O)(=O)N=C1N1CCC(C(=O)N2CCCC2)CC1 [Compound 52i] | 0.625 µg/mL | 2.5 µg/mL | – |
| CCN(CC)C1=NS(=O)(=O)C(c2ccc(F)cc2)=C1C [Compound 81b] | 0.625 µg/mL | 2.5 to 5 µg/mL | – |
| CCN(CC)C1=NS(=O)(=O)C(c2cccc(Cl)c2)=C1C [Compound 81g] | 0.625 µg/mL | 2.5 µg/mL | – |
| CC1=C(c2ccc(F)cc2)S(=O)(=O)N=C1NCc1ccco1 [Compound 87b] | 1.25 µg/mL | 10 µg/mL | – |
| CC1=C(c2ccc(F)cc2)S(=O)(=O)N=C1NCc1ccccc1 [Compound 89b] | 1.25 µg/mL | 10 µg/mL | – |
| CC1=C(c2ccc(C)c(C)c2)S(=O)(=O)N=C1NCC(=O)NCc1ccc2c(c1)OCO2 [Compound 115i] | 0.625 µg/mL | 10 µg/mL | – |
| CCCNC1=NS(=O)(=O)C(c2ccc(F)cc2)=C1C [Compound 139b] | 0.625 µg/mL | 10 µg/mL | – |
| CCCNC1=NS(=O)(=O)C(c2ccc(C)cc2)=C1C [Compound 139e] | 1.25 µg/mL | 10 µg/mL | – |
| CCCNC1=NS(=O)(=O)C(c2ccc(C)c(C)c2)=C1C [Compound 139i] | 1.25 µg/mL | 10 µg/mL | – |
| NC[C@H]1O[C@H](O[C@H]2[C@H](O)[C@@H](O[C@H]3O[C@H](CO)[C@@H](O)[C@H](N)[C@H]3O)[C@H](N)C[C@@H]2N)[C@H](O)[C@@H](O)[C@@H]1O [KAN, kanamycin A, reference compound] | 1.25 µg/mL | 10 µg/mL | – |
